According to patent US7803930B2, “Antisense modulation of apolipoprotein B-expression” (Isis Pharmaceuticals, Inc., priority 2002, dated 2010):
In the oligonucleotide strings, read from the 5' end, every base follows the letter of its sugar. An asterisk marks phosphorothioate; unmarked linkages are phosphodiester. Other units and linkages are bracketed, terminal groups are in braces. A string of capitals states the bases alone. e = 2'-O-(2-methoxyethyl) (MOE); [5mC] = 5-methylcytosine; d = 2'-deoxy (DNA)

System: human apolipoprotein B mRNA
Assay: Inhibition of human apolipoprotein B mRNA levels in HepG2 cells, quantitative real-time PCR
Format: cell-based
Details: for % INHIB 50 nm / % INHIB 150 nm / % INHIB / % Change in apolipoprotein B mRNA expression: HepG2 cells; for % INHIB (inhibition of human apolipoprotein B mRNA levels): HepG2 cells treated with 150 nM of compound, quantitative real-time PCR; for % Change in apolipoprotein B mRNA expression: 24 hour (Table 40)
Procedure, shortened: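 Apolipoprotein B transcript was quantified by one-step TaqMan RT-PCR, normalized to GAPDH or RiboGreen RNA, and expressed as percent inhibition against an untreated-sample standard curve. HepG2 cells were harvested 16-24 h after oligonucleotide exposure, which was delivered with 3.75 μg/mL Lipofectin over 4-7 h at 80% confluency.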

[1] = Table 11 gene walk, 50 nM, averages from two experiments
[2] = Table 11 gene walk, 150 nM, averages from two experiments
[3] = human apolipoprotein B mRNA, oligonucleotides targeting genomic sequence SEQ ID NO 334, averages from two experiments
[4] = 50 nm oligonucleotide, variable deoxy gap position
[5] = 150 nm oligonucleotide, variable deoxy gap position

Row | Substance | % INHIB [3] [%] | % INHIB (inhibition of human apolipoprotein B mRNA levels) (averages from two experiments) [%] | also measured
1 | 308614 (eT*eT*eT*eA*eG*dG*dT*dT*dA*d[5mC]*d[5mC]*dA*dG*d[5mC]*d[5mC]*eA*e[5mC]*eA*eT*eG; antisense) [compound 308614] | – | – | % INHIB 50 nm [1]: 74%; % INHIB 150 nm [2]: 92%
2 | 301101 (antisense eG*eG*eA*eG*eG*dT*dG*d[5mC]*dT*dA*d[5mC]*dT*dG*dT*dT*eG*eA*e[5mC]*eA*eT) [compound 301101] | 42 | – | –
3 | 301222 (antisense eT*e[5mC]*eT*eA*eG*dA*dG*dG*dT*dT*dT*dT*dG*d[5mC]*dT*eG*eT*eG*e[5mC]*e[5mC]) [compound 301222] | – | – | % INHIB (Table 15, 150 nM, averages from two experiments): 14%
4 | 301142 (eA*eT*eG*e[5mC]*eA*dG*d[5mC]*d[5mC]*dA*dG*dG*dA*dT*dG*dG*eG*e[5mC]*e[5mC]*eT*eA; antisense) [compound 301142] | 54 | – | –
5 | 281623 (antisense e[5mC]*e[5mC]*e[5mC]*eA*eT*d[5mC]*d[5mC]*dA*dG*dA*d[5mC]*dT*dG*dA*dA*eT*eT*eT*eT*eG) [compound 281623] | – | 59 | –
6 | 281602 (antisense eG*eT*e[5mC]*eT*eG*dA*dA*dG*dA*dA*dG*dA*dA*d[5mC]*d[5mC]*eT*e[5mC]*e[5mC]*eT*eG) [compound 281602] | – | 84 | –
7 | 301154 (e[5mC]*eA*eG*e[5mC]*e[5mC]*dT*dG*d[5mC]*dA*dT*d[5mC]*dT*dA*dT*dA*eA*eG*eT*e[5mC]*eA; antisense) [compound 301154] | 31 | – | –
8 | 281634 (antisense e[5mC]*eT*e[5mC]*eT*e[5mC]*dG*dA*dT*dT*dA*dA*d[5mC]*dT*d[5mC]*dA*eT*eG*eG*eA*e[5mC]) [compound 281634] | – | 81 | –
9 | 308629 (eA*eG*e[5mC]*e[5mC]*eT*d[5mC]*dA*dG*dT*d[5mC]*dT*dG*d[5mC]*dT*dT*e[5mC]*eG*e[5mC]*eG*e[5mC]; antisense) [compound 308629] | – | – | % INHIB 50 nm (Table 13 gene walk, 50 nM, averages from two experiments): 77%; % INHIB 150 nm (Table 13 gene walk, 150 nM, averages from two experiments): 95%
10 | 301189 (antisense eT*eG*eT*eG*eT*d[5mC]*dA*d[5mC]*dA*dA*d[5mC]*dT*dA*dT*dG*eG*eT*eA*eA*eA) [compound 301189] | 63 | – | –
11 | 271023 (antisense e[5mC]*e[5mC]*e[5mC]*eT*eT*dG*d[5mC]*dT*d[5mC]*dT*dA*d[5mC]*d[5mC]*dA*dA*eT*eG*e[5mC]*eT*eT) [compound 271023] | – | 44 | –
12 | 301149 (eA*eG*e[5mC]*eA*eT*dA*dT*dT*dT*dT*dG*dA*dT*dG*dA*eG*e[5mC]*eT*eG*eA; antisense) [compound 301149] | 44 | – | –
13 | 301056 (e[5mC]*eA*eG*eT*eT*dG*dA*dA*dA*dT*dG*d[5mC]*dA*dG*d[5mC]*eT*eA*eA*eT*eG; antisense) [compound 301056] | 35 | – | –
14 | 301111 (antisense eT*eG*eA*eA*eG*dG*dG*dT*dA*dG*dA*dG*dA*dA*dA*eT*e[5mC]*eA*eT*eA) [compound 301111] | 9 | – | –
15 | 147781 (antisense eA*e[5mC]*e[5mC]*eG*eA*dG*dA*dA*dG*dG*dG*d[5mC]*dA*d[5mC]*dT*e[5mC]*eA*eG*e[5mC]*e[5mC]) [compound 147781] | – | – | % INHIB (Table 1, 150 nM, averages from two experiments): 35%
16 | 301016 (e[5mC]*e[5mC]*eT*e[5mC]*eA*dG*d[5mC]*dG*dG*d[5mC]*dA*dG*d[5mC]*dA*dA*e[5mC]*e[5mC]*eG*eA*eG; antisense) [compound 301016] | – | 62 | –
17 | 281597 (eG*eG*eT*eA*eG*dG*dT*dG*dA*d[5mC]*d[5mC]*dA*d[5mC]*dA*dT*e[5mC]*eT*eA*eT*e[5mC]; antisense) [compound 281597] | – | 36 | –
18 | 308616 (eT*e[5mC]*e[5mC]*eT*eT*dT*dT*dA*dG*dG*dT*dT*dA*d[5mC]*d[5mC]*eA*eG*e[5mC]*e[5mC]*eA; antisense) [compound 308616] | – | – | % INHIB 50 nm [1]: 39%; % INHIB 150 nm [2]: 81%
19 | 301058 (eA*eG*eG*eA*eG*dG*dA*dT*dG*dT*d[5mC]*d[5mC]*dT*dT*dT*eT*eA*eT*eT*eG; antisense) [compound 301058] | 27 | – | –
20 | 301063 (eG*eT*e[5mC]*eA*e[5mC]*dA*dT*d[5mC]*d[5mC]*dG*dT*dG*d[5mC]*d[5mC]*dT*eG*eG*eT*eG*e[5mC]; antisense) [compound 301063] | 41 | – | –
21 | 301017 (eT*e[5mC]*e[5mC]*eT*e[5mC]*dA*dG*d[5mC]*dG*dG*d[5mC]*dA*dG*d[5mC]*dA*eA*e[5mC]*e[5mC]*eG*eA; antisense) [compound 301017] | – | 47 | –
22 | 281642 (eG*e[5mC]*e[5mC]*eT*e[5mC]*dA*d[5mC]*dT*dA*dG*d[5mC]*dA*dA*dT*dA*eG*eT*eT*e[5mC]*e[5mC]; antisense) [compound 281642] | – | 59 | –

Row | Substance | % INHIB [3] [%] | % INHIB (inhibition of human apolipoprotein B mRNA levels) (averages from two experiments) [%] | also measured
23 | 281589 (eT*e[5mC]*eA*eG*e[5mC]*dA*dA*dG*dG*d[5mC]*dT*dT*dT*dG*d[5mC]*e[5mC]*e[5mC]*eT*e[5mC]*eA; antisense) [compound 281589] | – | 90 | –
24 | 308606 (eT*eT*eG*eA*eA*dT*dG*dT*d[5mC]*dA*dT*dG*dG*dT*dA*eG*e[5mC]*e[5mC]*eT*e[5mC]; antisense) [compound 308606] | – | – | % INHIB 50 nm [1]: 54%; % INHIB 150 nm [2]: 97%
25 | 281613 (antisense eG*eT*eA*eT*eG*dG*dA*dA*dA*dT*dA*dA*d[5mC]*dA*d[5mC]*e[5mC]*e[5mC]*eT*eT*eG) [compound 281613] | – | 70 | –
26 | 308649 (antisense AGGTTACCAGCCACATGCAG; 6-10-4 2'-MOE gapmer, phosphorothioate, chemistry not fully specified) [compound 308649] | – | – | % INHIB 50 nm [4]: 68%; % INHIB 150 nm [5]: 91%
27 | 281607 (antisense e[5mC]*e[5mC]*eA*eG*eT*dT*d[5mC]*dA*dG*d[5mC]*d[5mC]*dT*dG*d[5mC]*dA*eT*eG*eT*eT*eG) [compound 281607] | – | 84 | –
28 | 301053 (eG*eT*e[5mC]*eG*e[5mC]*dA*dT*d[5mC]*dT*dT*d[5mC]*dT*dA*dA*d[5mC]*eG*eT*eG*eG*eG; antisense) [compound 301053] | 45 | – | –
29 | 308659 (antisense GCCTCAGTCTGCTTCGCACC; 9-10-1 2'-MOE gapmer, phosphorothioate, chemistry not fully specified) [compound 308659] | – | – | % INHIB 50 nm [4]: 70%; % INHIB 150 nm [5]: 93%
30 | 301206 (antisense eG*eT*eT*eT*eT*d[5mC]*dA*dA*dA*dA*dG*dG*dT*dA*dT*eA*eA*eG*eG*eT) [compound 301206] | 28 | – | –
31 | 301035 (eT*eT*e[5mC]*eT*eG*d[5mC]*dT*dT*dA*dT*dA*dG*dT*d[5mC]*dT*eA*e[5mC]*eT*eG*e[5mC]; antisense) [compound 301035] | – | 82 | –
32 | 301047 (eT*e[5mC]*e[5mC]*e[5mC]*e[5mC]*d[5mC]*dA*dA*dG*dT*dT*dT*dA*dG*d[5mC]*eA*eA*eA*eA*eT; antisense) [compound 301047] | – | 56 | –
33 | 301196 (antisense e[5mC]*e[5mC]*eG*eG*e[5mC]*d[5mC]*dA*dT*d[5mC]*dG*d[5mC]*dT*dG*dA*dA*eA*eT*eG*eA*eA) [compound 301196] | 54 | – | –
34 | 308641 (GCCTCAGTCTGCTTCGCACC; 2-10-8 MOE gapmer, phosphorothioate, chemistry not fully specified) [compound 308641] | – | – | % INHIB 50 nm [4]: 77%; % INHIB 150 nm [5]: 89%
35 | 301133 (eA*eA*eG*eA*eA*dA*dA*dT*dG*dG*d[5mC]*dA*dT*d[5mC]*dA*eG*eG*eT*eT*eT; antisense) [compound 301133] | 13 | – | –
36 | 301164 (antisense eG*e[5mC]*eT*eT*eT*d[5mC]*dG*d[5mC]*dA*dG*d[5mC]*dT*dG*dG*dG*e[5mC]*eA*eT*eG*e[5mC]) [compound 301164] | 55 | – | –
37 | 301089 (antisense eG*eA*eA*eG*eG*dT*d[5mC]*d[5mC]*dA*dT*dG*dG*dT*dT*d[5mC]*eA*eT*e[5mC]*eT*eG) [compound 301089] | 0 | – | –
38 | 301026 (eA*eT*eA*eT*eA*dG*dG*d[5mC]*dA*dG*dT*dT*dT*dG*dA*eA*eT*eT*eT*eT; antisense) [compound 301026] | – | 57 | –
39 | 271019 (antisense eT*eA*eT*eG*eT*d[5mC]*dT*dG*d[5mC]*dA*dG*dT*dT*dG*dA*eG*eA*eT*eA*eG) [compound 271019] | – | 15 | –
40 | 281639 (antisense eG*eA*e[5mC]*eG*eT*d[5mC]*dA*dG*dA*dA*d[5mC]*d[5mC]*dT*dA*dT*eG*eA*eT*eG*eG) [compound 281639] | – | – | % INHIB (Table 12, 150 nM, averages from two experiments): 38%
41 | 332770 (antisense GCCTCAGTCTTCTTCGCACC; sugars from the 5' end e5 d10 e5, all phosphorothioate, methylation of C not given here) [compound 332770] | – | – | % Change in apolipoprotein B mRNA expression (50 nM): +7%; % Change in apolipoprotein B mRNA expression (150 nM): −22%
42 | 271049 (eG*eT*e[5mC]*e[5mC]*eA*dG*d[5mC]*d[5mC]*dA*dA*d[5mC]*dT*dA*dT*dA*e[5mC]*eT*eT*eG*eG; antisense) [compound 271049] | – | 54 | –
43 | 301183 (antisense eT*e[5mC]*eT*eG*eG*dG*d[5mC]*d[5mC]*dA*dG*dG*dA*dA*dG*dA*e[5mC]*eA*e[5mC]*eG*eA) [compound 301183] | 68 | – | –
